Consider 27 molecules from patent US10647713B2 (Nimbus Lakshmi, Inc., priority 2016, dated 2020).

Broadly, the Kd is the free concentration of one partner at which half of the binding sites on the other are occupied at equilibrium, for simple one-to-one binding.

Chain of human TYK2 (JH2domain-pseudokinase) (P29597 556-888): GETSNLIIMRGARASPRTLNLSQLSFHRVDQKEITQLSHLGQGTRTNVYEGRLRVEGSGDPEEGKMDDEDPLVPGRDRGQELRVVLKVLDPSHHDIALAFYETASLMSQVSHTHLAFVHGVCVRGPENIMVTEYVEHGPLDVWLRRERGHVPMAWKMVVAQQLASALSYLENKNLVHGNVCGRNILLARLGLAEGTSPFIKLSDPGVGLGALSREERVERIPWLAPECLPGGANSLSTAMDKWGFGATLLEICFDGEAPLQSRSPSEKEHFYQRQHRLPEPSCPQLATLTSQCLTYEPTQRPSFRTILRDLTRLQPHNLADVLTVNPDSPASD

The assay concerns the target human TYK2 (JH2domain-pseudokinase) (Homo sapiens (Human), UniProt P29597). The assay is described as follows: TYK2 JH2 Domain Binding Assay (KINOMEscan, DiscoveRx). As to conditions: 11-point dilution, duplicate. A digest of the protocol:
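Kd from duplicate 11-point 3-fold dilutions starting at 30,000 nM, fitted by Hill equation with slope fixed at −1. Compounds (final 0.9% DMSO) displace DNA-tagged HEK293-expressed TYK2 JH2 fusion (<0.1 nM) from ligand-coated beads over 1 h at room temperature; eluted kinase read by qPCR.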
For `COc1c(Nc2cc(Nc3cnc(N4CCOCC4)c(C#N)n3)nc3[nH]c(C(F)F)nc23)cccc1-c1nnn(C)n1` [I-47, 6-((2-(difluoromethyl)-7-((2-methoxy-3-(2-methyl-2H-tetrazol-5-yl)phenyl)amino)-3H-imidazo[4,5-b]pyridin-5-yl)amino)-3-morpholinopyrazine-2-carbonitrile], the Kd fell in the range of 1 to 10 nM.

The molecule `COc1c(Nc2cc(Nc3cnc(N4CC[C@@H](OC)C4)c(C#N)n3)nc3[nH]c(C(F)F)nc23)cccc1-c1nnn(C)n1` [I-48, (R)-6-((2-(difluoromethyl)-7-((2-methoxy-3-(2-methyl-2H-tetrazol-5-yl)phenyl)amino)-3H-imidazo[4,5-b]pyridin-5-yl)amino)-3-(3-methoxypyrrolidin-1-yl)pyrazine-2-carbonitrile] came in with a Kd of 1 to 10 nM.

Turning to `COc1c(Nc2cc(Nc3ccc(C(C)(C)OC)c(C#N)n3)nc3[nH]c(C(F)F)nc23)cccc1-c1nnn(C)n1` [I-49, 6-((2-(difluoromethyl)-7-((2-methoxy-3-(2-methyl-2H-tetrazol-5-yl)phenyl)amino)-3H-imidazo[4,5-b]pyridin-5-yl)amino)-3-(2-methoxypropan-2-yl)picolinonitrile], the Kd is over 10 nM.

The molecule `COC1CN(c2ccc(Nc3cc(NC(=O)C4CC4)nc4[nH]c(C(F)F)nc34)c(N(C)S(C)(=O)=O)c2)C1` [I-50, N-(2-(difluoromethyl)-7-((4-(3-methoxyazetidin-1-yl)-2-(N-methylmethylsulfonamido)phenyl)amino)-3H-imidazo[4,5-b]pyridin-5-yl)cyclopropanecarboxamide] gave a Kd of 1 to 10 nM.

For the molecule `COc1c(Nc2cc(NC(=O)C3CC3)nc3[nH]c(C(F)F)nc23)cccc1-n1cnc(C)n1` [I-51, N-(2-(difluoromethyl)-7-((2-methoxy-3-(3-methyl-1H-1,2,4-triazol-1-yl)phenyl)amino)-3H-imidazo[4,5-b]pyridin-5-yl)cyclopropanecarboxamide], the Kd was over 10 nM.

Turning to `COc1c(Nc2cc(NC(=O)C3CC3)nc3[nH]c(C(F)F)nc23)cccc1-c1nn(C)nc1C` [I-53, N-(2-(difluoromethyl)-7-((3-(2,5-dimethyl-2H-1,2,3-triazol-4-yl)-2-methoxyphenyl)amino)-3H-imidazo[4,5-b]pyridin-5-yl)cyclopropanecarboxamide], the Kd is over 10 nM.

As for `COc1c(Nc2cc(NC(=O)C3CC3)nc3[nH]c(C(F)F)nc23)cccc1-n1nc(C)nc1C` [I-54, N-(2-(difluoromethyl)-7-((3-(3,5-dimethyl-1H-1,2,4-triazol-1-yl)-2-methoxyphenyl)amino)-3H-imidazo[4,5-b]pyridin-5-yl)cyclopropanecarboxamide], the Kd is over 10 nM.

As to `COc1c(Nc2cc(NC(=O)C3CC3)nc3[nH]c(C(F)F)nc23)cccc1-n1ncnc1C` [I-55, N-(2-(difluoromethyl)-7-((2-methoxy-3-(5-methyl-1H-1,2,4-triazol-1-yl)phenyl)amino)-3H-imidazo[4,5-b]pyridin-5-yl)cyclopropanecarboxamide], the Kd is over 10 nM.

For the molecule `COc1c(Nc2cc(Nc3cnc(C(C)(C)OC)c(C)n3)nc3[nH]c(C(F)F)nc23)cccc1-c1nnn(C)n1` [I-56, 2-(difluoromethyl)-N7-(2-methoxy-3-(2-methyl-2H-tetrazol-5-yl)phenyl)-N5-(5-(2-methoxypropan-2-yl)-6-methylpyrazin-2-yl)-3H-imidazo[4,5-b]pyridine-5,7-diamines], the Kd lay within 1 to 10 nM.

`CS(=O)(=O)c1cc(Cl)ccc1Nc1cc(NC(=O)C2CC2)nc2[nH]c(C(F)F)nc12` [I-58, N-(7-((4-chloro-2-(methylsulfonyl)phenyl)amino)-2-(difluoromethyl)-3H-imidazo[4,5-b]pyridin-5-yl)cyclopropanecarboxamide]: the Kd lay within 0.5 to 1 nM.

`Cc1ncc(Nc2cc(Nc3ccccc3N(C)S(C)(=O)=O)c3nc(C(F)F)[nH]c3n2)nc1C` [I-59, N-(2-((2-(difluoromethyl)-5-((5,6-dimethylpyrazin-2-yl)amino)-3H-imidazo[4,5-b]pyridin-7-yl)amino)phenyl)-N-methylmethanesulfonamide]: the Kd lay within 0.1 to 0.5 nM.

The molecule `Cc1ccc(Nc2cc(Nc3ccccc3N(C)S(C)(=O)=O)c3nc(C(F)F)[nH]c3n2)nc1C#N` [I-60, N-(2-((5-((6-cyano-5-methylpyridin-2-yl)amino)-2-(difluoromethyl)-3H-imidazo[4,5-b]pyridin-7-yl)amino)phenyl)-N-methylmethanesulfonamides] had a Kd of under 0.1 nM.

Molecule `Cn1ccc(-c2ccc(Nc3cc(NC(=O)C4CC4)nc4[nH]c(C(F)F)nc34)c(S(C)(=O)=O)c2)n1` [I-61, N-(2-(difluoromethyl)-7-((4-(1-methyl-1H-pyrazol-3-yl)-2-(methylsulfonyl)phenyl)amino)-3H-imidazo[4,5-b]pyridin-5-yl)cyclopropanecarboxamide] displayed a Kd of 0.1 to 0.5 nM.

With `Cn1cnc(-c2ccc(Nc3cc(NC(=O)C4CC4)nc4[nH]c(C(F)F)nc34)c(S(C)(=O)=O)c2)c1` [I-62, N-(2-(difluoromethyl)-7-((4-(1-methyl-1H-imidazol-4-yl)-2-(methylsulfonyl)phenyl)amino)-3H-imidazo[4,5-b]pyridin-5-yl)cyclopropanecarboxamide], the Kd was 0.1 to 0.5 nM.

In turn, `Cc1ccn(-c2ccc(Nc3cc(NC(=O)C4CC4)nc4[nH]c(C(F)F)nc34)c(S(C)(=O)=O)c2)n1` [I-63, N-(2-(difluoromethyl)-7-((4-(3-methyl-1H-pyrazol-1-yl)-2-(methylsulfonyl)phenyl)amino)-3H-imidazo[4,5-b]pyridin-5-yl)cyclopropanecarboxamide] displayed a Kd of 0.5 to 1 nM.

`CN(c1cc(-c2cn(C)cn2)ccc1Nc1cc(NC(=O)C2CC2)nc2[nH]c(C(F)F)nc12)S(C)(=O)=O` [I-64, N-(2-(difluoromethyl)-7-((4-(1-methyl-1H-imidazol-4-yl)-2-(N-methylmethylsulfonamido)phenyl)amino)-3H-imidazo[4,5-b]pyridin-5-yl)cyclopropanecarboxamide]: the equilibrium dissociation constant (Kd) was 0.1 to 0.5 nM.

Turning to `CN(c1cc(-c2cnn(C)c2)ccc1Nc1cc(NC(=O)C2CC2)nc2[nH]c(C(F)F)nc12)S(C)(=O)=O` [I-65, N-(2-(difluoromethyl)-7-((4-(1-methyl-1H-pyrazol-4-yl)-2-(N-methylmethylsulfonamido)phenyl)amino)-3H-imidazo[4,5-b]pyridin-5-yl)cyclopropanecarboxamide], the Kd lay within 0.1 to 0.5 nM.

`COc1c(Nc2cc(Nc3cnc(C(C)(C)OC)c(C#N)n3)nc3[nH]c(C(F)F)nc23)cccc1-c1nnn(C)n1` [I-80, 6-((2-(difluoromethyl)-7-((2-methoxy-3-(2-methyl-2H-tetrazol-5-yl)phenyl)amino)-3H-imidazo[4,5-b]pyridin-5-yl)amino)-3-(2-methoxypropan-2-yl)pyrazine-2-carbonitrile] returned a Kd of 1 to 10 nM.

The molecule `CS(=O)(=O)c1cc(F)ccc1Nc1cc(NC(=O)C2CC2)nc2[nH]c(C(F)F)nc12` [I-85, N-(2-(difluoromethyl)-7-((4-fluoro-2-(methylsulfonyl)phenyl)amino)-3H-imidazo[4,5-b]pyridin-5-yl)cyclopropanecarboxamide] showed a Kd of 0.5 to 1 nM.

In turn, `CN(c1ccccc1Nc1cc(Nc2cccc(C(F)(F)F)n2)nc2[nH]c(C(F)F)nc12)S(C)(=O)=O` [I-87, N-(2-((2-(difluoromethyl)-5-((6-(trifluoromethyl)pyridin-2-yl)amino)-3H-imidazo[4,5-b]pyridin-7-yl)amino)phenyl)-N-methylmethanesulfonamide] registered a Kd of 0.5 to 1 nM.

In the case of `CN(c1cc(N2CCC2)ccc1Nc1cc(NC(=O)C2CC2)nc2[nH]c(C(F)F)nc12)S(C)(=O)=O` [I-89, N-(7-((4-(azetidin-1-yl)-2-(N-methylmethylsulfonamido)phenyl)amino)-2-(difluoromethyl)-3H-imidazo[4,5-b]pyridin-5-yl)cyclopropanecarboxamide], the Kd was 0.5 to 1 nM.

`Cc1ncc(Nc2cc(Nc3ccc(Cl)cc3N(C)S(C)(=O)=O)c3nc(C(F)F)[nH]c3n2)nc1C` [I-93, N-(5-chloro-2-((2-(difluoromethyl)-5-((5,6-dimethylpyrazin-2-yl)amino)-3H-imidazo[4,5-b]pyridin-7-yl)amino)phenyl)-N-methylmethanesulfonamide]: the Kd was in the range of 0.1 to 0.5 nM.

The molecule `CN(c1cc(Cl)ccc1Nc1cc(Nc2cccc(C#N)n2)nc2[nH]c(C(F)F)nc12)S(C)(=O)=O` [I-94, N-(5-chloro-2-((5-((6-cyanopyridin-2-yl)amino)-2-(difluoromethyl)-3H-imidazo[4,5-b]pyridin-7-yl)amino)phenyl)-N-methylmethanesulfonamide] displayed a Kd of 0.5 to 1 nM.

The molecule `Cc1ccc(Nc2cc(NC(=O)C3CC3)nc3[nH]c(C(F)F)nc23)c(N(C)S(C)(=O)=O)c1` [I-95, N-(2-(difluoromethyl)-7-((4-methyl-2-(N-methylmethylsulfonamido)phenyl)amino)-3H-imidazo[4,5-b]pyridin-5-yl)cyclopropanecarboxamide] registered a Kd of 0.1 to 0.5 nM.

Molecule `COCc1ccc(Nc2cc(NC(=O)C3CC3)nc3[nH]c(C(F)F)nc23)c(N(C)S(C)(=O)=O)c1` [I-96, N-(2-(difluoromethyl)-7-((4-(methoxymethyl)-2-(N-methylmethylsulfonamido)phenyl)amino)-3H-imidazo[4,5-b]pyridin-5-yl)cyclopropanecarboxamide] gave a Kd of 0.1 to 0.5 nM.

Take `Cc1ccc(Nc2cc(Nc3cnc(C)c(C)n3)nc3[nH]c(C(F)F)nc23)c(N(C)S(C)(=O)=O)c1` [I-97, N-(2-((2-(difluoromethyl)-5-((5,6-dimethylpyrazin-2-yl)amino)-3H-imidazo[4,5-b]pyridin-7-yl)amino)-5-methylphenyl)-N-methylmethanesulfonamide]: the Kd was over 10 nM.

For `COc1c(Nc2cc(NC(=O)C3CC3)nc3[nH]c(C)nc23)cccc1-c1nnn(C)n1` [I-98, N-(7-((2-methoxy-3-(2-methyl-2H-tetrazol-5-yl)phenyl)amino)-2-methyl-3H-imidazo[4,5-b]pyridin-5-yl)cyclopropanecarboxamide], the Kd lay in the range of 0.5 to 1 nM.
